Assay results taken from patent publication US20200085814A1, “COMBINATION OF CERTINIB WITH AN EGFR INHIBITOR” (Novartis AG, priority 2014, published 2020).
“Also recorded” adds a separate entry of the source. Read-outs that look alike come from different tables or passages of the source.

Columns and labels:
[1] = tested on: AKT phosphorylation in MGH051 cells; assay: Western blotting, MGH051 cells, ceritinib 4 hours or 8 days, inhibitors added for last day; type: cell-based; details: MGH051 (FIG. 6); for rebound in AKT phosphorylation: added for the last day of long-term (8 days) ceritinib treatment
Method: (§1) FIG. 6. […] MGH051 cells were treated with ceritinib (LDK378) for 4 hours or 8 days.
(§2) The activated states of ALK and HER3 of multiple NSCLC cell lines that harbor EML4-ALK translocations were assessed in both short-term and long-term cultures.

[2] = tested on: ERK phosphorylation in MGH051 cells; assay: Western blotting, MGH051 cells, inhibitors added for last day of long-term ceritinib treatment; type: cell-based; details: added for the last day of long-term (8 days) ceritinib treatment, MGH051 (FIG. 6)
Method: as §1, §2

MGH049 cells [3] = assay: Cell proliferation (CellTiter-Glo), EGFR inhibitors with or without ceritinib; type: cell-based
Method: (§3) These cell lines harbor EML4-ALK rearrangements.
(§4) Three replicate plates were set up for each cell line and drug compound, with or without ceritinib. A representative dose response curve was then calculated by taking the mean across the 3 replicates with and without ceritinib. Proliferation inhibition values were normalized to the measured inhibition value at zero dose of the compound, with and without ceritinib.
(§5) Experiments performed with cell lines MGH049 and MGH051 are depicted on FIG. 3 and FIG. 4, respectively.

MGH051 cells [4] = assay: Cell colony formation assay, crystal violet; type: cell-based; details: MGH051, 7 days; for cell growth inhibition as single agent (colony formation): ceritinib 0.5 μM or erlotinib 1 μM (FIG. 7); for anti-proliferative effect in combination with ceritinib versus ceritinib alone (colony formation): ceritinib 0.5 μM + erlotinib 1 μM (FIG. 7)
Description: (§6) FIGS. 7A and 7B. […] For each cell line, all dishes were fixed, stained and photographed at the same time.

MGH049 cells [5] = assay: Cell colony formation assay, crystal violet; type: cell-based; details: MGH049, 7 days; for cell growth inhibition as single agent (colony formation): ceritinib 0.5 μM or erlotinib 1 μM (FIG. 7); for anti-proliferative effect in combination with ceritinib versus ceritinib alone (colony formation): ceritinib 0.5 μM + erlotinib 1 μM (FIG. 7)
Description: as §6

NCI-H2228 cells = assay: Secretome screening, CellTiter-Glo cell proliferation in presence of ceritinib; type: cell-based; details: 0.5 μM ceritinib, conditioned supernatant, 96 hours
Method: NCI-H2228 was obtained from ATCC. The cell lines harbored EML4-ALK rearrangements. NCI-H2228 cells were cultured in RPMI-1640 (ATCC Catalog #30-2001) supplemented with 15% FBS.
Secretome screening was performed as described previously (Lito P, Pratilas C A, et al. Cancer Cell 2012; 22: 668-82). In brief, 317 cDNA constructs that represent 220 unique secreted proteins were reverse transfected into HEK293T cells individually and incubated 4 days to allow accumulation of secreted proteins in supernatant. The supernatant was transferred to the assay cells, namely NCI-H2228 cells, followed by addition of ceritinib to a final concentration of 0.5 μM. Cell proliferation was measured using CellTiter-Glo after 96 hours. Cells treated with DMSO in the absence of conditioned media and with ceritinib alone were used as controls.
The Cell Titer Glo assay was done with H2228 cell line. The cell line stems from adenocarcinoma; non-small cell lung cancer. Cell Titer Glo assay is a Cell Viability Assay that determined the number of viable cells in culture based on quantitation of the ATP present, which signaled the presence of metabolically active cells.
“Ceritinib no ligand” represents cells that were treated with ceritinib only (absence of any ligand) and represents the impact of ceritinib on cell viability. […]

[6] = tested on: HER3 phosphorylation in ALK positive NSCLC cell lines; assay: Western blotting of whole cell lysates after short-term and long-term ceritinib treatment; type: cell-based; details: long-term treatment, 4 ALK positive cell lines (FIG. 5)
Method: FIG. 5. […] Cells were harvested after short-term and long-term ceritinib (LDK378) treatment, and whole cell lysates were analyzed by Western blotting.
as §2

MGH051 cells [7] = assay: Cell proliferation assay (CellTiter-Glo), ceritinib dose response; type: cell-based; details: 144 h; 0.3 μM ceritinib, 6 days, MGH051, relative to median DMSO signal; read-out: percent inhibition of cell proliferation
Method: (§7) MGH049 and MGH051 were obtained from Massachusetts General Hospital (Friboulet L, Li N, et al. Cancer Discovery 2014; 4: 662-73). These cell lines harbor EML4-ALK rearrangements. MGH049 and MGH051 were cultured in DMEM (ATCC Catalog #30-2002) supplemented with 10% FBS.
(§8) To determine the dose-response relationship between the dose of ceritinib and the magnitude of its effect on cell proliferation, 1K MGH049 and 4K MGH051 cells were plated in each well of 384 well-plates, and grown for 24 hours prior to treatment. Cells were then treated with DMSO or ceritinib at concentrations ranging from 4 nM to 1 μM (3-fold dilutions). After 6 days, cell proliferation was measured using the CellTiter-Glo luminescent cell viability assay. Percent inhibition was calculated relative to median DMSO signal.

MGH049 cells [8] = assay: as above; type: cell-based; details: 144 h; 0.3 μM ceritinib, 6 days, MGH049, relative to median DMSO signal; read-out: percent inhibition of cell proliferation
Method: as §7, §8

MGH051 cells [9] = tested on: MGH051 cells
Method: as §3, §4, §5

[10] = tested on: HER3 activation in MGH051 cells; assay: Western blotting, MGH051 cells, inhibitors added for last day of long-term ceritinib treatment; type: cell-based; details: added for the last day of long-term (8 days) ceritinib treatment, MGH051 (FIG. 6)
Method: FIG. 6. Addition of HER3 and EGFR inhibitors represses the rebound in AKT phosphorylation. MGH051 cells were treated with ceritinib (LDK378) for 4 hours or 8 days.
The activated states of ALK and HER3 of multiple NSCLC cell lines that harbor EML4-ALK translocations were assessed in both short-term and long-term cultures. […] In addition, the levels of pHER3 correlated with the duration of the treatments (FIG. 5). Next, we assessed the activation of the downstream signaling of HER3 and the repression of ceritinib-induced HER3 activation using various inhibitors.

H2228 tumors = assay: H2228 NSCLC xenograft efficacy; type: in vivo, female SCID-beige mice
Method: In this experiment female SCID Beige mice bearing H2228 tumors were used. At start, the mice were 8 to 12 weeks of age. First, the mice were inoculated with 4 mm^3 H2228 tumor fragments by subcutaneous injection in flank. The fragments were dipped in Matrigel before implanting. When tumors reached an average size of 100-150 mm^3 the treatment according to the scheme below commenced. The body weight was measured daily for the first 5 days and then biweekly until end. The tumor was measured biweekly by caliper until end. […] Dosing with the compounds ended on study day 32. After this the tumor size was monitored during an observation phase for re-growth.
The average tumor volume data in the graphs is not complete through the end of the study for all groups. Once a group lost more than 50% of the animals due to death or ethical sacrifice, the average tumor volume for the remaining animals in these groups was no longer graphed.

Compound: CN(C)C/C=C/C(=O)Nc1cc2c(Nc3ccc(F)c(Cl)c3)ncnc2cc1O[C@H]1CCOC1 [afatinib, (S,E)-N-(4-((3-chloro-4-fluorophenyl)amino)-7-((tetrahydrofuran-3-yl)oxy)quinazolin-6-yl)-4-(dimethylamino)but-2-enamide]
- rebound in AKT phosphorylation [1]: able to suppress the rebound in AKT phosphorylation
- ERK phosphorylation [2]: enhanced inhibition of ERK phosphorylation

Compound: Cc1cc(Nc2ncc(Cl)c(Nc3ccccc3S(=O)(=O)C(C)C)n2)c(OC(C)C)cc1C1CCNCC1 [ceritinib, 5-chloro-N^2-(2-isopropoxy-5-methyl-4-(piperidin-4-yl)phenyl)-N^4-[2-(propane-2-sulfonyl)-phenyl]-pyrimidine-2,4-diamine]
- sensitivity of cell line to ceritinib alone (MGH049 cells [3]; MGH049, no ALK resistance mutations): resistant
- cell growth inhibition as single agent (colony formation) (MGH051 cells [4]): partially effective
- cell growth inhibition as single agent (colony formation) (MGH049 cells [5]): less effective
- AKT phosphorylation ([1]; ceritinib 8-day treatment): profound rebound in AKT phosphorylation
- AKT phosphorylation ([1]; ceritinib initial (4 hours) treatment): initial inhibition of AKT phosphorylation
- reversal of growth inhibitory effect of ceritinib by secreted ligands (cell viability) (NCI-H2228 cells): Ligands for EGFR and ERBB3 clearly overcame the inhibitory effect of ceritinib
- HER3 phosphorylation [6]: induction of HER3 phosphorylation; also recorded: up-regulation of HER3 phosphorylation
- inhibition at 0.3 µM (MGH051 cells [7]): 70%
- inhibition at 0.3 µM (MGH049 cells [8]): 20%

Compound: Cc1cc(C(=O)Nc2nc3cccc(Cl)c3n2[C@@H]2CCCCN(C(=O)/C=C/CN(C)C)C2)ccn1 [compound A, (R,E)-N-(7-chloro-1-(1-(4-(dimethylamino)but-2-enoyl)azepan-3-yl)-1H-benzo[d]imidazol-2-yl)-2-methylisonicotinamide]
- cell growth, EGFR inhibitor in combination with ceritinib (MGH049 cells [3]; in combination with 0.5 μM ceritinib, 6 days, MGH049 (FIG. 3)): synergistically reduced cell growth
- cell growth, EGFR inhibitor in combination with ceritinib (MGH051 cells [9]; in combination with 0.5 μM ceritinib, 6 days, MGH051 (FIG. 4)): synergistically reduced cell growth

Compound: C#Cc1cccc(Nc2ncnc3cc(OCCOC)c(OCCOC)cc23)c1 [erlotinib, N-(3-ethynylphenyl)-6,7-bis-(2-methoxyethoxy)quinazolin-4-amine]
- anti-proliferative effect in combination with ceritinib versus ceritinib alone (colony formation) (MGH051 cells [4]): greater anti-proliferative effect
- anti-proliferative effect in combination with ceritinib versus ceritinib alone (colony formation) (MGH051 cells [4]; listed as Erlotinib): enhances the anti-proliferation activity of ceritinib
- cell growth inhibition as single agent (colony formation) (MGH051 cells [4]): no effect on cell growth
- anti-proliferative effect in combination with ceritinib versus ceritinib alone (colony formation) (MGH049 cells [5]): greater anti-proliferative effect
- anti-proliferative effect in combination with ceritinib versus ceritinib alone (colony formation) (MGH049 cells [5]; listed as Erlotinib): enhances the anti-proliferation activity of ceritinib
- cell growth inhibition as single agent (colony formation) (MGH049 cells [5]): no effect on cell growth
- rebound in AKT phosphorylation [1]: able to suppress the rebound in AKT phosphorylation
- ERK phosphorylation [2]: enhanced inhibition of ERK phosphorylation

Compound: CS(=O)(=O)CCNCc1ccc(-c2ccc3ncnc(Nc4ccc(OCc5cccc(F)c5)c(Cl)c4)c3c2)o1 [lapatinib, N-[3-chloro-4-(3-fluorobenzyloxy)phenyl]-6-{5-[4-(methylsulfonyl)-2-azabutyl]-2-furyl} quinazolin-4-amine]
- cell growth, EGFR inhibitor in combination with ceritinib (MGH049 cells [3]): synergistically reduced cell growth
- cell growth, EGFR inhibitor in combination with ceritinib (MGH051 cells [9]): synergistically reduced cell growth

Compound: Antibody A: anti-HER3 antibody comprising the sequences of MOR10703 as defined in Table 1
- rebound in AKT phosphorylation [1]: markedly suppressed
- activation of HER3 [10]: markedly suppressed
- efficacy (tumor volume) of LDK378 in combination with the antibody (H2228 tumors; LDK378 25 or 50 mg/kg po qd × 32 + cetuximab 20 mg/kg ip biwk × 5 or Ab A 25 mg/kg ip qod × 17 (FIGS. 8A, 8B)): significantly improved efficacy of LDK378
- efficacy of ceritinib with Antibody A and cetuximab combined (triple combination) (H2228 tumors; ceritinib + Antibody A + cetuximab): significantly improve the efficacy of ceritinib
